Source: PubChem BioAssay (NCI)
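Grown in 96-well plates, cells were treated for 48 hours with each compound at five concentrations. Insufficient inhibition: endpoint recorded as highest concentration tested. GI50: concentration for 50% inhibition of growth. TGI marks complete inhibition of growth.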

Assays:
Assay in all cases: inhibition of tumour cell growth, NCI panel, 48 h
OVCAR-4 ovarian = test system: OVCAR-4 ovarian
UACC-62 melanoma = test system: UACC-62 melanoma
HCT-116 colon = test system: HCT-116 colon
SK-MEL-28 melanoma = test system: SK-MEL-28 melanoma
UACC-257 melanoma = test system: UACC-257 melanoma
HCT-15 colon = test system: HCT-15 colon
SK-MEL-5 melanoma = test system: SK-MEL-5 melanoma
HL-60(TB) leukemia = test system: HL-60(TB) leukemia
COLO 205 colon = test system: COLO 205 colon
MDA-MB-435 = test system: MDA-MB-435
OVCAR-5 ovarian = test system: OVCAR-5 ovarian
ACHN renal = test system: ACHN renal
PC-3 prostate = test system: PC-3 prostate
SR leukemia = test system: SR leukemia
SF-268 CNS = test system: SF-268 CNS
MDA-MB-468 breast = test system: MDA-MB-468 breast
NCI-H23 lung = test system: NCI-H23 lung
OVCAR-8 ovarian = test system: OVCAR-8 ovarian
HT29 colon = test system: HT29 colon
A498 renal = test system: A498 renal
SN12C renal = test system: SN12C renal
NCI-H522 lung = test system: NCI-H522 lung
BT-549 breast = test system: BT-549 breast
SNB-75 CNS = test system: SNB-75 CNS
SK-OV-3 ovarian = test system: SK-OV-3 ovarian
M14 melanoma = test system: M14 melanoma
T-47D breast = test system: T-47D breast
RXF 393 renal = test system: RXF 393 renal
MALME-3M melanoma = test system: MALME-3M melanoma
K-562 leukemia = test system: K-562 leukemia
U251 CNS = test system: U251 CNS
HCC-2998 colon = test system: HCC-2998 colon
LOX IMVI melanoma = test system: LOX IMVI melanoma
SF-539 CNS = test system: SF-539 CNS
NCI-H460 lung = test system: NCI-H460 lung
786-0 renal = test system: 786-0 renal
CAKI-1 renal = test system: CAKI-1 renal
TK-10 renal = test system: TK-10 renal
SNB-19 CNS = test system: SNB-19 CNS
IGROV1 ovarian = test system: IGROV1 ovarian
HOP-92 NSCLC = test system: HOP-92 NSCLC
UO-31 renal = test system: UO-31 renal
MCF7 breast = test system: MCF7 breast
OVCAR-3 ovarian = test system: OVCAR-3 ovarian
MOLT-4 leukemia = test system: MOLT-4 leukemia
NCI-H226 lung = test system: NCI-H226 lung
SF-295 CNS = test system: SF-295 CNS
CCRF-CEM leukemia = test system: CCRF-CEM leukemia
DU-145 prostate = test system: DU-145 prostate
KM12 colon = test system: KM12 colon
SW-620 colon = test system: SW-620 colon
HS 578T breast = test system: HS 578T breast
RPMI-8226 leukemia = test system: RPMI-8226 leukemia
HOP-62 NSCLC = test system: HOP-62 NSCLC
A549 NSCLC = test system: A549 NSCLC
MDA-MB-231 breast = test system: MDA-MB-231 breast
EKVX NSCLC = test system: EKVX NSCLC

COc1ccc(N2N=C(c3ccc4c(c3)OCO4)CC2c2cccc(NC(=O)CCNS(=O)(=O)c3ccc(Cl)cc3)c2)cc1 (centres undefined)
GI50 (OVCAR-4 ovarian): 19.1 µM | TGI (OVCAR-4 ovarian): > 100 µM | GI50 (UACC-62 melanoma): 20.4 µM | TGI (UACC-62 melanoma): > 100 µM | GI50 (HCT-116 colon): 9.05 µM | TGI (HCT-116 colon): > 100 µM | GI50 (SK-MEL-28 melanoma): 7.37 µM | TGI (SK-MEL-28 melanoma): > 100 µM | GI50 (UACC-257 melanoma): 77.1 µM | TGI (UACC-257 melanoma): > 100 µM | GI50 (HCT-15 colon): 7.25 µM | TGI (HCT-15 colon): > 100 µM | GI50 (SK-MEL-5 melanoma): 22.8 µM | TGI (SK-MEL-5 melanoma): > 100 µM | GI50 (HL-60(TB) leukemia): 25.7 µM | TGI (HL-60(TB) leukemia): > 100 µM | GI50 (COLO 205 colon): 25.1 µM | TGI (COLO 205 colon): > 100 µM | GI50 (MDA-MB-435): 14.3 µM | TGI (MDA-MB-435): > 100 µM | GI50 (OVCAR-5 ovarian): 51.6 µM | TGI (OVCAR-5 ovarian): > 100 µM | GI50 (ACHN renal): 11.6 µM | TGI (ACHN renal): > 100 µM | GI50 (PC-3 prostate): 4.61 µM | TGI (PC-3 prostate): > 100 µM | GI50 (SR leukemia): 4.68 µM | TGI (SR leukemia): > 100 µM | GI50 (SF-268 CNS): 11.6 µM | TGI (SF-268 CNS): > 100 µM | GI50 (MDA-MB-468 breast): 7.03 µM | TGI (MDA-MB-468 breast): > 100 µM | GI50 (NCI-H23 lung): 22.6 µM | TGI (NCI-H23 lung): > 100 µM | GI50 (OVCAR-8 ovarian): 82.8 µM | TGI (OVCAR-8 ovarian): > 100 µM | GI50 (HT29 colon): 7.96 µM | TGI (HT29 colon): > 100 µM | GI50 (A498 renal): 20.6 µM | TGI (A498 renal): 48.1 µM | GI50 (SN12C renal): 14.4 µM | TGI (SN12C renal): > 100 µM | GI50 (NCI-H522 lung): 2.73 µM | TGI (NCI-H522 lung): 7.92 µM | GI50 (BT-549 breast): 3.03 µM | TGI (BT-549 breast): 20.3 µM | GI50 (SNB-75 CNS): 9.46 µM | TGI (SNB-75 CNS): > 100 µM | GI50 (SK-OV-3 ovarian): 54.7 µM | TGI (SK-OV-3 ovarian): > 100 µM | GI50 (M14 melanoma): 9.12 µM | TGI (M14 melanoma): > 100 µM | GI50 (T-47D breast): 7.96 µM | TGI (T-47D breast): > 100 µM | GI50 (RXF 393 renal): 4.98 µM | TGI (RXF 393 renal): > 100 µM | GI50 (MALME-3M melanoma): 5.42 µM | TGI (MALME-3M melanoma): > 100 µM | GI50 (K-562 leukemia): 3.97 µM | TGI (K-562 leukemia): > 100 µM | GI50 (U251 CNS): 20.5 µM | TGI (U251 CNS): > 100 µM | GI50 (HCC-2998 colon): 8.75 µM | TGI (HCC-2998 colon): > 100 µM | GI50 (LOX IMVI melanoma): 12.1 µM | TGI (LOX IMVI melanoma): > 100 µM | GI50 (SF-539 CNS): 17.5 µM | TGI (SF-539 CNS): > 100 µM | GI50 (NCI-H460 lung): 11.3 µM | TGI (NCI-H460 lung): > 100 µM | GI50 (786-0 renal): 18.8 µM | TGI (786-0 renal): > 100 µM | GI50 (CAKI-1 renal): 8.88 µM | TGI (CAKI-1 renal): > 100 µM | GI50 (TK-10 renal): 38.6 µM | TGI (TK-10 renal): > 100 µM | GI50 (SNB-19 CNS): 16.4 µM | TGI (SNB-19 CNS): > 100 µM | GI50 (IGROV1 ovarian): 39.8 µM | TGI (IGROV1 ovarian): > 100 µM | GI50 (HOP-92 NSCLC): 8.13 µM | TGI (HOP-92 NSCLC): 76.8 µM | GI50 (UO-31 renal): 15.6 µM | TGI (UO-31 renal): > 100 µM | GI50 (MCF7 breast): 4.21 µM | TGI (MCF7 breast): > 100 µM | GI50 (OVCAR-3 ovarian): 47.6 µM | TGI (OVCAR-3 ovarian): > 100 µM | GI50 (MOLT-4 leukemia): 4.71 µM | TGI (MOLT-4 leukemia): > 100 µM | GI50 (NCI-H226 lung): 18 µM | TGI (NCI-H226 lung): > 100 µM | GI50 (SF-295 CNS): 5.22 µM | TGI (SF-295 CNS): 72.2 µM | GI50 (CCRF-CEM leukemia): 5.4 µM | TGI (CCRF-CEM leukemia): > 100 µM | GI50 (DU-145 prostate): 13.6 µM | TGI (DU-145 prostate): > 100 µM | GI50 (KM12 colon): 12 µM | TGI (KM12 colon): > 100 µM | GI50 (SW-620 colon): 41.1 µM | TGI (SW-620 colon): > 100 µM | GI50 (HS 578T breast): 10.6 µM | TGI (HS 578T breast): > 100 µM | GI50 (RPMI-8226 leukemia): 6.44 µM | TGI (RPMI-8226 leukemia): > 100 µM | GI50 (HOP-62 NSCLC): 63.4 µM | TGI (HOP-62 NSCLC): > 100 µM | GI50 (A549 NSCLC): 42.4 µM | TGI (A549 NSCLC): > 100 µM | GI50 (MDA-MB-231 breast): 8.11 µM | TGI (MDA-MB-231 breast): 96 µM | GI50 (EKVX NSCLC): 4.36 µM | TGI (EKVX NSCLC): > 100 µM
